# Results: article PMC10364322, “Evaluation of chronic drug-induced electrophysiological and cytotoxic effects using human-induced pluripotent stem cell-derived cardiomyocytes (hiPSC-CMs)” (Frontiers in Pharmacology, 2023)
# Like-named read-outs stand apart in the source and are kept apart here.
# Experiments:
# [1] = system: hiPSC-CMs (iCell-Cardiomyocytes^2); assay: MEA impedance (cytotoxicity readout) in hiPSC-CMs
# Protocol: (§1) Cells were seeded according to the instructions of the cell provider, in fibronectin-coated 48-well MEA plates (Axion Cytoview Plates, M768-tMEA-48B) at a density suited to form a monolayer (i.e., 50 K/well) and maintained in culture in a stage incubator (37°C, 5% CO2).
# (§2) At least 4 h before the beginning of the baseline measurements, a full medium exchange was performed (to a final volume of 400 µL per well). Neat compounds were dissolved in 100% DMSO at a stock concentration 1000-fold the highest target concentration. […] Afterwards, these stock solutions were diluted with Maintenance medium (CDi), to 10-fold the intended concentration. The final DMSO concentration in test solutions and vehicle control was 0.1%.
# (§3) Spontaneous electrical activity was recorded in hiPSC-CMs monolayers as field potentials using the Maestro Pro MEA instrument (Axion Biosystems, Atlanta, GA, United States), which allows the maintenance of accurate temperature and CO2 levels (37°C, 5% CO2). After the plate was placed in the Maestro Pro and allowed to equilibrate for about 10 min, baseline acquisition of field potential and impedance signals was initiated and lasted for 5 min each. […] As impedance measures resistance of an applied alternating current through the hiPSC-CMs monolayer, a reduction in the attachment of hiPSC-CMs to the bottom of the well due to cell death or changes in the monolayer morphology, causes a drop in the impedance signal.
# (§4) After the acquisition of all timepoint measurements, raw data were loaded into the data analysis software Axion Cardiac Analysis Tool (V.3.2.3). […] A.csv file containing information on the FP parameters per well, per time point, was then generated and used as input to the in-house data management system (SPEcII v.3.4, Unlimit-IT, Geel, Belgium), where descriptive statistics were calculated. Summary values at different time points after compound addition are expressed as percent change from baseline and shown as mean ± standard deviation (SD).
# (§5) The nonparametric Wilcoxon-Mann Whitney Test was used to compare the percent change from the baseline (Δ%) value between the group treated with the compound at a given concentration and the group treated with the DMSO at each matching time points. A two-sided test at 5% significance level was considered. […] To assess the physiological relevance of changes, a tolerance interval of DMSO experiments was calculated at each time point, for each parameter. […] TIs indicate an interval where, with a certain confidence level (1- α = 0.95), a specified proportion (p = 0.80) of percent change for DMSO data falls. The lower and upper limits based on the TI values were used as cut-offs for the interpretation of the changes. For the cytotoxicity assays, measurements of fluorescence (after background fluorescence subtraction) from wells treated with the compounds were normalized by the average value of vehicle experiments (DMSO 0.1%) to obtain a DMSO-corrected, delta/delta percent change. Experiments from each condition, as delta/delta percent, were averaged and expressed as mean ± SD. Statistical analysis was performed using a non-parametric test (Kruskal-Wallis) and each treatment condition was compared to the relative DMSO 0.1%. Differences were considered statistically significant when the p-value was smaller than 0.05.
# [2] = free therapeutic Cmax in humans; ref FDA-approved drug packages, PharmaPendium; cited from earlier work
# [3] = system: hiPSC-CMs (iCell-Cardiomyocytes^2)
# Protocol: as §1, §2, §3
# The potential presence of various arrhythmic events was evaluated and noted during the data analysis.
# as §4, §5
# [4] = all concentrations tested, up to 96 h
smiles,measurement,setting,value
CC(=O)Oc1ccccc1C(=O)O [Aspirin],"Imp (impedance), % change from baseline","[1]; 3 µM, 72h",-2±2%
same,"Imp (impedance), % change from baseline","[1]; 3 µM, 96h",-7±3%
same,"Imp (impedance), % change from baseline","[1]; 3 µM, 2h",5±3%
same,"Imp (impedance), % change from baseline","[1]; 3 µM, 24h",-9±4%
same,"Imp (impedance), % change from baseline","[1]; 3 µM, 48h",-10±2%
same,"Imp (impedance), % change from baseline","[1]; 10 µM, 2h",6±2%
same,"Imp (impedance), % change from baseline","[1]; 10 µM, 24h",-8±3%
same,"Imp (impedance), % change from baseline","[1]; 10 µM, 48h",-7±3%
same,"Imp (impedance), % change from baseline","[1]; 10 µM, 72h",-4±5%
same,"Imp (impedance), % change from baseline","[1]; 10 µM, 96h",-6±6%
same,"Imp (impedance), % change from baseline","[1]; 30 µM, 2h",6±4%
same,"Imp (impedance), % change from baseline","[1]; 30 µM, 24h",-4±3%
same,"Imp (impedance), % change from baseline","[1]; 30 µM, 48h",-8±3%
same,"Imp (impedance), % change from baseline","[1]; 30 µM, 72h",-1±2%
same,"Imp (impedance), % change from baseline","[1]; 30 µM, 96h",-3±2%
same,"Imp (impedance), % change from baseline","[1]; 100 µM, 2h",8±1%
same,"Imp (impedance), % change from baseline","[1]; 100 µM, 24h",-7±4%
same,"Imp (impedance), % change from baseline","[1]; 100 µM, 48h",-11±3%
same,"Imp (impedance), % change from baseline","[1]; 100 µM, 72h",-2±6%
same,"Imp (impedance), % change from baseline","[1]; 100 µM, 96h",-6±7%
same,effect on impedance,[1]; [4],did not have a significant effect on impedance
same,Free Cmax,[2],11.1 µM
same,"BR (beating rate), % change from baseline","[3]; 3 µM, 72h",-10±2%
same,"FPD (field-potential duration), % change from baseline","[3]; 3 µM, 72h",16.3±2.2%
same,"BR (beating rate), % change from baseline","[3]; 3 µM, 96h",-18±1%
same,"FPD (field-potential duration), % change from baseline","[3]; 3 µM, 96h",25.2±3.5%
same,"BR (beating rate), % change from baseline","[3]; 3 µM, 2h",2±2%
same,"FPD (field-potential duration), % change from baseline","[3]; 3 µM, 2h",2.5±1.6%
same,"BR (beating rate), % change from baseline","[3]; 3 µM, 24h",1±2%
same,"FPD (field-potential duration), % change from baseline","[3]; 3 µM, 24h",6.2±3%
same,"BR (beating rate), % change from baseline","[3]; 3 µM, 48h",-7±1%
same,"FPD (field-potential duration), % change from baseline","[3]; 3 µM, 48h",13.2±2.8%
same,"BR (beating rate), % change from baseline","[3]; 10 µM, 2h",3±2%
same,"FPD (field-potential duration), % change from baseline","[3]; 10 µM, 2h",4±7.9%
same,"BR (beating rate), % change from baseline","[3]; 10 µM, 24h",2±3%
same,"FPD (field-potential duration), % change from baseline","[3]; 10 µM, 24h",5.8±4.5%
same,"BR (beating rate), % change from baseline","[3]; 10 µM, 48h",-8±3%
same,"FPD (field-potential duration), % change from baseline","[3]; 10 µM, 48h",12.2±6.3%
same,"BR (beating rate), % change from baseline","[3]; 10 µM, 72h",-9±2%
same,"FPD (field-potential duration), % change from baseline","[3]; 10 µM, 72h",14.6±6.7%
same,"BR (beating rate), % change from baseline","[3]; 10 µM, 96h",-17±3%
same,"FPD (field-potential duration), % change from baseline","[3]; 10 µM, 96h",23.3±7.8%
same,"BR (beating rate), % change from baseline","[3]; 30 µM, 2h",3±2%
same,"FPD (field-potential duration), % change from baseline","[3]; 30 µM, 2h",0.9±1.8%
same,"BR (beating rate), % change from baseline","[3]; 30 µM, 24h",0±4%
same,"FPD (field-potential duration), % change from baseline","[3]; 30 µM, 24h",6.7±3.9%
same,"BR (beating rate), % change from baseline","[3]; 30 µM, 48h",-8±2%
same,"FPD (field-potential duration), % change from baseline","[3]; 30 µM, 48h",13.5±5.1%
same,"BR (beating rate), % change from baseline","[3]; 30 µM, 72h",-9±3%
same,"FPD (field-potential duration), % change from baseline","[3]; 30 µM, 72h",15.4±5%
same,"BR (beating rate), % change from baseline","[3]; 30 µM, 96h",-18±4%
same,"FPD (field-potential duration), % change from baseline","[3]; 30 µM, 96h",23.3±4.7%
same,"BR (beating rate), % change from baseline","[3]; 100 µM, 2h",2±3%
same,"FPD (field-potential duration), % change from baseline","[3]; 100 µM, 2h",0.2±2.9%
same,"BR (beating rate), % change from baseline","[3]; 100 µM, 24h",-2±3%
same,"FPD (field-potential duration), % change from baseline","[3]; 100 µM, 24h",7.2±3.6%
same,"BR (beating rate), % change from baseline","[3]; 100 µM, 48h",-7±2%
same,"FPD (field-potential duration), % change from baseline","[3]; 100 µM, 48h",13.4±3%
same,"BR (beating rate), % change from baseline","[3]; 100 µM, 72h",-10±3%
same,"FPD (field-potential duration), % change from baseline","[3]; 100 µM, 72h",17.6±2%
same,"BR (beating rate), % change from baseline","[3]; 100 µM, 96h",-16±4%
same,"FPD (field-potential duration), % change from baseline","[3]; 100 µM, 96h",23.9±1.7%
same,"cessation of beating, flat T-wave or arrhythmic-like events",[3]; [4],"no cessation of beating, flat T-wave or arrhythmic-like events were detected"
